According to patent publication US20140088124A1, “IMIDAZOLE DERIVATIVES” (priority 2011, published 2014):

Molecular target: T1, human DGAT1 (Homo sapiens, UniProt O75907)
T1 sequence (O75907 1-488): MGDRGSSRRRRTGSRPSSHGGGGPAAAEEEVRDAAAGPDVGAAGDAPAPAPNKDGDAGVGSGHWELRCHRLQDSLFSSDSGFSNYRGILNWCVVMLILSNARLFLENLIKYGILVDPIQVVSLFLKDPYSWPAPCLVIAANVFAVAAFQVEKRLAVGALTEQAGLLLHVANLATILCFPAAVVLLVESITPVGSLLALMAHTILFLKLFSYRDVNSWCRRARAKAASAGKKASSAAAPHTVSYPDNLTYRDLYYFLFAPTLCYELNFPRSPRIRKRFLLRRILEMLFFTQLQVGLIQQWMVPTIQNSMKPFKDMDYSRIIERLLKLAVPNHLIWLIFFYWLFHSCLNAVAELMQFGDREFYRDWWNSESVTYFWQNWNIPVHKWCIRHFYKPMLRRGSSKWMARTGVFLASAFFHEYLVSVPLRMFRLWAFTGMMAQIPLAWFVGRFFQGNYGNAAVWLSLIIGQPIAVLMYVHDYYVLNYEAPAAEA
Assay: DGAT1 CPM Assay
Format: biochemical
Details: human DGAT1, CPM fluorescence, 1 hour incubation at room temperature
Description: 20 uL of 90 uM CPM reagent in 90% ethanol was added after 1 hour incubation at room temperature.

IC50 | Compound
17 nM | O=C(O)C1(COC2CCN(c3ccc(-c4nc5ccc(Cl)cc5[nH]4)cn3)CC2)CCOCC1 [Example 50]
9 nM | O=C(NS(=O)(=O)c1ccc(C(F)(F)F)cc1)[C@H]1CC[C@H](OC2CCN(c3ccc(-c4nc5cc(F)ccc5[nH]4)cn3)CC2)CC1 [Example 85]
17 nM | CC(C)S(=O)(=O)NC(=O)[C@H]1CC[C@H](OC2CCN(c3ccc(-c4nc5cc(F)ccc5[nH]4)cn3)CC2)CC1 [Example 81]
2 nM | O=C(O)CC1C[C@@H]2CC(OC3CCN(c4ccc(-c5nc6ccc(C(F)(F)F)cc6[nH]5)cn4)CC3)C[C@@H]2C1 (stereo partly drawn) [Example 56]
3 nM | O=C(O)C[C@H]1CC[C@@H](OC2CCN(c3ccc(-c4nc5cc(F)c(F)cc5[nH]4)cn3)CC2)CC1 [Example 25]
20 nM | CCOc1ccc2nc(-c3ccc(N4CCC(O[C@H]5CC[C@@H](CC(=O)O)CC5)CC4)nc3)[nH]c2n1 [Example 9]
16 nM | O=C(O)C[C@H]1CC[C@H](OC2CCN(c3ccc(-c4nc5nc(C(F)(F)F)ccc5[nH]4)cn3)CC2)CC1 [Example 23]
220 nM | O=C(O)C1(COC2CCN(c3ccc(-c4nc5ccccc5[nH]4)cn3)CC2)CCOCC1 [Example 49]
4 nM | O=C(O)c1cccc(COC2CCN(c3ccc(-c4nc5cc(C(F)(F)F)ccc5[nH]4)cn3)CC2)c1 [Example 117]
27 nM | C[C@]1(C(=O)O)CC[C@H](OC2CCN(c3ccc(-c4nc5ccccc5[nH]4)cn3)CC2)CC1 [Example 101]
2 nM | O=C(O)c1cccc(OC2CCN(c3ccc(-c4nc5cc(Cl)ccc5[nH]4)cn3)CC2)c1 [Example 132]
97 nM | O=C(O)C1(COC2CCN(c3ccc(-c4nc5ccc(F)cc5[nH]4)cn3)CC2)CCOCC1 [Example 46]
14 nM | CCOC(=O)[C@H]1CC[C@@H](OC2CCN(c3ccc(-c4nc5cc(Cl)ccc5[nH]4)cn3)CC2)CC1 [Example 75]
50 nM | O=C(O)C1(COC2CCN(c3ccc(-c4nc5ccccc5[nH]4)cn3)CC2)CCC1 [Example 42]
1200 nM | O=C(O)C1(COC2CCN(c3ccc(-c4nc5ccccc5[nH]4)cn3)CC2)CC1 [Example 41]
9 nM | C[C@]1(C(=O)O)CC[C@H](OC2CCN(c3ccc(-c4nc5ccc(F)cc5[nH]4)cn3)CC2)CC1 [Example 99]
29 nM | COc1ccc2nc(-c3ccc(N4CCC(O[C@H]5CC[C@H](N6CC(=O)NS6(=O)=O)CC5)CC4)nc3)[nH]c2n1 [Example 120]
60 nM | COc1ccc2[nH]c(-c3ccc(N4CCC(OCC(C)(C)C(=O)O)CC4)nc3)nc2n1 [Example 48]
2 nM | C[C@]1(C(=O)O)CC[C@@H](OC2CCN(c3ccc(-c4nc5cc(Cl)c(Cl)cc5[nH]4)cn3)CC2)CC1 [Example 109]
9 nM | O=C(NS(=O)(=O)c1ccc(F)cc1)[C@H]1CC[C@H](OC2CCN(c3ccc(-c4nc5cc(F)ccc5[nH]4)cn3)CC2)CC1 [Example 88]
3 nM | O=C(O)[C@H]1CC[C@H](OC2CCN(c3ccc(-c4nc5cc(Cl)ccc5[nH]4)cn3)CC2)CC1 [Example 71]
5 nM | CC(C)(COC1CCN(c2ccc(-c3nc4cc(Cl)ccc4[nH]3)cn2)CC1)C(=O)O [Example 47]
4 nM | CCCCc1ccc2nc(-c3ccc(N4CCC(O[C@H]5CC[C@@H](CC(=O)O)CC5)CC4)nc3)[nH]c2c1 [Example 24, [cis-4-({1-[5-(6-butyl-1H-benzimidazol-2-yl)pyridin-2-yl]piperidin-4-yl}oxy)cyclohexyl]acetic acid]
6600 nM | Cc1nc(N2CCC(O[C@H]3CC[C@@H](CC(=O)O)CC3)CC2)ccc1-c1nc2ccccc2[nH]1 [Example 11]
6 nM | O=C(O)C[C@H]1CC[C@H](OC2CCN(c3ccc(-c4nc5ccc(F)cc5[nH]4)cn3)CC2)CC1 [Example 1, [trans-4-({1-[5-(6-fluoro-1H-benzimidazol-2-yl)pyridin-2-yl]piperidin-4-yl}oxy)cyclohexyl]acetic acid]
2 nM | CC(C)(COC1CCN(c2ccc(-c3nc4cc(Cl)c(Cl)cc4[nH]3)cn2)CC1)C(=O)O [Example 64]
17 nM | O=C(NS(=O)(=O)C1CC1)[C@H]1CC[C@H](OC2CCN(c3ccc(-c4nc5cc(F)ccc5[nH]4)cn3)CC2)CC1 [Example 83]
10 nM | O=C(O)CC1CC(OC2CCN(c3ccc(-c4nc5ccc(C(F)(F)F)cc5[nH]4)cn3)CC2)C1 (stereo not drawn) [Example 52]

IC50 | Compound
64 nM | O[C@@H]1CO[C@H]2[C@@H]1OC[C@@H]2OC1CCN(c2ccc(-c3nc4cc(F)ccc4[nH]3)cn2)CC1 [Example 125]
19 nM | O=C(NS(=O)(=O)c1cccnc1)[C@H]1CC[C@H](OC2CCN(c3ccc(-c4nc5cc(F)ccc5[nH]4)cn3)CC2)CC1 [Example 82]
15 nM | O=C(O)c1cc(OC2CCN(c3ccc(-c4nc5cc(Cl)ccc5[nH]4)cn3)CC2)no1 [Example 130]
147 nM | Cc1cc(N2CCC(O[C@H]3CC[C@@H](CC(=O)O)CC3)CC2)ncc1-c1nc2ccccc2[nH]1 [Example 13]
71 nM | CCOC(=O)[C@H]1CC[C@H](OC2CCN(c3ccc(-c4nc5cc(F)ccc5[nH]4)cn3)CC2)CC1 [Example 73]
6 nM | O=C(O)[C@H]1CC[C@@H](OC2CCN(c3ccc(-c4nc5cc(F)ccc5[nH]4)cn3)CC2)CC1 [Example 78]
4 nM | O=C1CN([C@H]2CC[C@H](OC3CCN(c4ccc(-c5nc6cc(F)c(F)cc6[nH]5)cn4)CC3)CC2)S(=O)(=O)N1 [Example 119]
2 nM | O=C(O)[C@H]1CC[C@@H](OC2CCN(c3ccc(-c4nc5cc(Cl)ccc5[nH]4)cn3)CC2)CC1 [Example 76]
48 nM | C[C@]1(C(=O)O)CC[C@@H](OC2CCN(c3ccc(-c4nc5ncc(C(F)(F)F)cc5[nH]4)cn3)CC2)CC1 [Example 107]
17 nM | CCOC(=O)[C@H]1CC[C@@H](OC2CCN(c3ccc(-c4nc5cc(F)ccc5[nH]4)cn3)CC2)CC1 [Example 77]
147 nM | O=C(O)C1(C(=O)O)CC(OC2CCN(c3ccc(-c4nc5ccccc5[nH]4)cn3)CC2)C1 [Example 92]
89 nM | O=C(O)C[C@H]1CC[C@@H](OC2CCN(c3ccc(-c4nc5cc(F)ccc5[nH]4)cn3)C2)CC1 (single isomer, unassigned) [Example 140]
2 nM | C[C@]1(C(=O)O)CC[C@H](OC2CCN(c3ccc(-c4nc5ccc(C(F)(F)F)cc5[nH]4)cn3)CC2)CC1 [Example 100]
26 nM | N#Cc1ccc2[nH]c(-c3ccc(N4CCC(O[C@H]5CC[C@H](CC(=O)O)CC5)CC4)nc3)nc2c1 [Example 18]
6 nM | O=C(O)C1(COC2CCN(c3ccc(-c4nc5ccc(Cl)cc5[nH]4)cn3)CC2)CCC1 [Example 43]
19 nM | O=C(O)C[C@H]1CC[C@H](OC2CCN(c3ccc(-c4nc5ccccc5[nH]4)cn3)CC2)CC1 [Example 7]
2 nM | O=C(O)[C@H]1CC[C@H](OC2CCN(c3ccc(-c4nc5cc(C(F)(F)F)ccc5[nH]4)cn3)CC2)CC1 [Example 69, trans-4-[(1-{5-[5-(trifluoromethyl)-1H-benzimidazol-2-yl]pyridin-2-yl}piperidin-4-yl)oxy]cyclohexanecarboxylic acid]
4 nM | C[C@]1(C(=O)O)CC[C@H](OC2CCN(c3ccc(-c4nc5ccc(Cl)cc5[nH]4)cn3)CC2)CC1 [Example 102]
4 nM | C[C@]1(C(=O)O)C[C@H](OC2CCN(c3ccc(-c4nc5cc(C(F)(F)F)ccc5[nH]4)cn3)CC2)C1 [Example 103]
29 nM | COC(=O)C(C)(C)COC1CCN(c2ccc(-c3nc4ccccc4[nH]3)cn2)CC1 [Example 35]
99 nM | COC(=O)c1cccc(COC2CCN(c3ccc(-c4nc5cc(C(F)(F)F)ccc5[nH]4)cn3)CC2)c1 [Example 116]
125 nM | C[C@]1(C(=O)O)CC[C@@H](OC2CCN(c3ccc(-c4nc5ncc(Cl)cc5[nH]4)cn3)CC2)CC1 [Example 108]
15 nM | O=C(O)[C@H]1CC[C@H](OC2CCN(c3ccc(-c4nc5cc(F)ccc5[nH]4)cn3)CC2)CC1 [Example 74]
2 nM | O=C(O)[C@H]1[C@@H]2C[C@H](OC3CCN(c4ccc(-c5nc6cc(C(F)(F)F)ccc6[nH]5)cn4)CC3)C[C@@H]21 [Example 133, (1R,3R,5S,6r)-3-[(1-{5-[5-(trifluoromethyl)-1H-benzimidazol-2-yl]pyridin-2-yl}piperidin-4-yl)oxy]bicyclo[3.1.0]hexane-6-carboxylic acid]
349 nM | Cc1cc(N2CCC(O[C@H]3CC[C@H](CC(=O)O)CC3)CC2)ncc1-c1nc2ccccc2[nH]1 [Example 12]
4 nM | O=C(O)[C@H]1[C@@H]2C[C@@H](OC3CCN(c4ccc(-c5nc6cc(C(F)(F)F)ccc6[nH]5)cn4)CC3)C[C@@H]21 [Example 134]
8 nM | O=C(O)C[C@H]1CC[C@@H](OC2CCN(c3ccc(-c4nc5ccc(F)cc5[nH]4)cn3)CC2)CC1 [Example 2, [cis-4-({1-[5-(6-fluoro-1H-benzimidazol-2-yl)pyridin-2-yl]piperidin-4-yl}oxy)cyclohexyl]acetic acid]

Compound | IC50
O=C(O)C[C@H]1CC[C@@H](OC2CCN(c3ccc(-c4nc5ccccc5[nH]4)cn3)CC2)CC1 [Example 8] | 15 nM
O=C(O)C[C@H]1CC[C@H](OC2CCN(c3ccc(-c4nc5cc(Cl)ccc5[nH]4)cn3)CC2)CC1 [Example 19] | 3 nM
